Test results from the CheMixHub viscosity set.

Test: xn = mol fraction of the nth substance listed

C=COC(C)=O + Cc1ccccc1C
viscosity [mPa·s], 101 kPa
Settings | x1 = 0.1492 | x1 = 0.2538 | x1 = 0.3604 | x1 = 0.4517 | x1 = 0.5641 | x1 = 0.6689 | x1 = 0.7705 | x1 = 0.8616 | x1 = 0.9508
303.15 K | 0.632 | 0.594 | 0.558 | 0.529 | 0.494 | 0.463 | 0.435 | 0.413 | 0.394
313.15 K | 0.57 | 0.537 | 0.505 | 0.478 | 0.446 | 0.417 | 0.391 | 0.37 | 0.353

CCCCOC(C)=O + Cc1ccccc1C
viscosity [mPa·s], 101 kPa
Settings | 298.15 K | 308.15 K
x1 = 0.0481 | 0.751 | 0.652
x1 = 0.1501 | 0.735 | 0.64
x1 = 0.2484 | 0.722 | 0.63
x1 = 0.3482 | 0.71 | 0.621
x1 = 0.4474 | 0.7 | 0.614
x1 = 0.5002 | 0.696 | 0.61
x1 = 0.5477 | 0.692 | 0.607
x1 = 0.657 | 0.685 | 0.602
x1 = 0.7456 | 0.68 | 0.599
x1 = 0.8459 | 0.677 | 0.596
x1 = 0.9461 | 0.675 | 0.594

OCCc1ccccc1 + Cc1ccccc1N
viscosity [mPa·s], 100 kPa
Settings | x2 = 0.0857 | x2 = 0.1652 | x2 = 0.2724 | x2 = 0.3731 | x2 = 0.4711 | x2 = 0.6147 | x2 = 0.7123 | x2 = 0.8105 | x2 = 0.8904
303.15 K | 8.539 | 8.086 | 7.473 | 6.895 | 6.332 | 5.503 | 4.937 | 4.366 | 3.9
308.15 K | 7.247 | 6.868 | 6.356 | 5.874 | 5.402 | 4.708 | 4.234 | 3.755 | 3.364
313.15 K | 6.014 | 5.714 | 5.307 | 4.923 | 4.548 | 3.994 | 3.616 | 3.234 | 2.921
318.15 K | 4.751 | 4.532 | 4.234 | 3.952 | 3.676 | 3.269 | 2.991 | 2.708 | 2.476

CCCCCCCC(=O)O + ClC(Cl)(Cl)Cl
298.15 K, 101 kPa
Settings | viscosity [mPa·s]
x1 = 0.05 | 1.011
x1 = 0.11 | 1.124
x1 = 0.16 | 1.248
x1 = 0.21 | 1.38
x1 = 0.42 | 2.021
x1 = 0.52 | 2.406
x1 = 0.62 | 2.867
x1 = 0.81 | 3.905

N#CCCl + ClC(Cl)(Cl)Cl
viscosity [mPa·s], 101 kPa
Settings | 293.15 K | 298.15 K | 303.15 K | 313.15 K | 323.15 K
x1 = 0.014 | 0.983 | 0.907 | 0.844 | 0.749 | 0.672
x1 = 0.087 | 0.939 | 0.867 | 0.803 | 0.71 | 0.633
x1 = 0.222 | 0.914 | 0.841 | 0.78 | 0.688 | 0.615

ClCCOCCCl + FB(F)F
101 kPa, x2 = 0.0939
Settings | viscosity [mPa·s]
293.15 K | 23.94
303.15 K | 14.59
313.15 K | 9.569
323.15 K | 6.506

C1COCOC1 + NC=O
viscosity [mPa·s], 101 kPa
Settings | x2 = 0.6012 | x2 = 0.6156 | x2 = 0.8658 | x2 = 0.8689 | x2 = 0.9552 | x2 = 0.9555
298.15 K | 2.039 | – | 3.119 | – | – | 3.328
313.15 K | – | 1.581 | – | 2.196 | 2.366 | –

CC(C)C(C)O (configuration not stated) + NCc1ccccc1
viscosity [mPa·s], 101.33 kPa
Settings | x2 = 0.0999 | x2 = 0.2 | x2 = 0.3002 | x2 = 0.4001 | x2 = 0.4997 | x2 = 0.5998 | x2 = 0.6999 | x2 = 0.7997 | x2 = 0.9
298.15 K | 3.336 | 3.109 | 2.89 | 2.683 | 2.49 | 2.315 | 2.131 | 1.96 | 1.81
303.15 K | 2.903 | 2.663 | 2.443 | 2.249 | 2.084 | 1.927 | 1.792 | 1.673 | 1.571
308.15 K | 2.388 | 2.184 | 2.009 | 1.853 | 1.724 | 1.614 | 1.521 | 1.449 | 1.404

Clc1ccccc1Cl + Nc1cccc(Cl)c1
viscosity [mPa·s], 100 kPa
Settings | x2 = 0.1053 | x2 = 0.2011 | x2 = 0.3045 | x2 = 0.4064 | x2 = 0.507 | x2 = 0.6062 | x2 = 0.7041 | x2 = 0.8007 | x2 = 0.906
303.15 K | 1.568 | 1.866 | 2.184 | 2.495 | 2.799 | 3.097 | 3.389 | 3.674 | 3.983
308.15 K | 1.444 | 1.71 | 1.995 | 2.274 | 2.546 | 2.812 | 3.072 | 3.326 | 3.6
313.15 K | 1.319 | 1.555 | 1.807 | 2.053 | 2.293 | 2.527 | 2.756 | 2.979 | 3.22
318.15 K | 1.206 | 1.412 | 1.629 | 1.842 | 2.048 | 2.25 | 2.447 | 2.639 | 2.845
